Reference: patent US20080139613A1, “Chemical Compound” (AstraZeneca AB, priority 2006, published 2008)

Key:
[1] = target: T1, CCR5 (Homo sapiens, UniProt P51681); experiment: Displacement of radio-labelled CCR5 antagonist from Allo-T cell membranes; type: binding; conditions: membranes of human allo-reactive T cells; 2 nM [3H] CCR5 antagonist; 2 hours at room temperature
T1 construct: After 21 to 34 days culture, the membranes were prepared from the cells; endogenous in cells; host or cells: Allo-T cells (allo-reactive T cell line from human PBMCs), membrane preparation
T1 sequence (P51681 whole entry): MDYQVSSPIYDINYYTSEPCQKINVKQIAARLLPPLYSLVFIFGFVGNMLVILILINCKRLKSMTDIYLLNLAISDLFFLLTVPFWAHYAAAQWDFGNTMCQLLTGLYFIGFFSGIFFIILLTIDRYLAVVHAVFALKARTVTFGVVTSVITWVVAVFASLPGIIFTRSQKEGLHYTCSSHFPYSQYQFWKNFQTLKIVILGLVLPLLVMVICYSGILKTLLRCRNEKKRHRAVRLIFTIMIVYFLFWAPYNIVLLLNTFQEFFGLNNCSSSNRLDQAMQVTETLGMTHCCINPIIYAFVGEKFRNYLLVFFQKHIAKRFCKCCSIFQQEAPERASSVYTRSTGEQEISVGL
Protocol: The ability of the compound of the present invention to inhibit the binding of MIP-1β (CCL-4) was measured:
An allo-reactive T cell line was generated by exposure of human peripheral blood mononuclear cells (PBMCs) to L-DR4/B7 fibroblasts (immobilised with glutaraldehyde fixation and irradiation) and subsequent expansion with anti-CD3 and IL-2 for 14 days. The resultant Allo-T cells were frozen. When required, the cells were grown and re-challenged with irradiated HLA-DR4+ve PBMCs and expanded with anti-CD3 and IL-2. After 21 to 34 days culture, the membranes were prepared from the cells. These membranes were incubated in 96-well plates with 2 nM of the radio-labelled CCR5 antagonist [^3H]1-{(3R)-3-(3,5-difluorophenyl)-3-[4-(methylsulfonyl)phenyl]propyl}-4-(2-{[4-(methylsulfonyl)phenyl]sulfonyl}ethyl)piperidine and various concentrations of the compound of the invention for 2 hours at room temperature. The plates were then harvested onto GF/B filter plates (which had been pre-soaked soaked in 0.3% PEI containing 0.2% BSA for 10 min at 4° C.) using a Packard Unifilter harvester using 10 wash steps. The amount of [^3H]1-{(3R)-3-(3,5-difluorophenyl)-3-[4-(methylsulfonyl)phenyl]propyl}-4-(2-{[4-(methylsulfonyl)phenyl]sulfonyl}ethyl)piperidine retained on the filter plates was determined by scintillation counting. […]

[2] = Rat pharmacokinetics after intravenous and oral dosing; type: in vivo; conditions: male Han Wistar rat; for clearance / half-life / Vd: Alderley Park Han Wistar, whole blood, intravenous 2 mg/kg; for clearance: blood clearance; for half-life: read-out: T½ (converted); for Vd: volume of distribution, read-out: Vdss; for F: bioavailability, oral 2 mg/kg vs intravenous 2 mg/kg
Protocol: The rat pharmacokinetic (PK) parameters blood clearance (CL), volume of distribution (Vdss) and half life (t1/2) are calculated by determining the concentration (exposure) of test compound in whole blood samples taken from rats at various, defined time points subsequent to the intra-venous dosing (administration) of formulated test compound. The rat PK parameter bioavailability (F) is calculated by determining the concentration (exposure) of test compound in whole blood samples taken from rats at various, defined time-points subsequent to the oral dosing (administration) of formulated test compound and then by comparison of the ratio of the dose normalized total oral exposure (AUCpo) with the dose normalized total intra-venous exposure (AUCiv). Fraction absorbed (Fabs) is a secondary PK parameter that is often calculated from a knowledge of the clearance (CL) and bioavailability (F) of a test compound. The equation for determination of Fabs is as follows: […]
where Qh is the species liver blood flow (ml/min/kg).
For intravenous dosing, test compounds are dissolved in dimethyl acetamide (DMA) and then diluted with water such that the final test compound concentration is 1 mg/ml and the composition of the formulation is 40% DMA: 60% water. Male rats (n=2, Alderley Park Han Wistar strain) are then administered, via the tail vein, the test compound formulation at a dose volume of 2 ml/kg bodyweight such that each rat receives a total test compound dose of 2 mg/kg bodyweight. Blood sampling post IV dosing is via needle stick puncture of the tail vein and is serial in design: two rats have blood samples taken at 5, 20, 40, 90, 180, 360, 720 and 1440 (cardiac puncture) minutes after dosing.
For oral dosing, test compounds are dissolved in dimethyl sulphoxide (DMSO and then diluted with hydroxymethyl cellulose (HPMC) 0.5% w/v-Tween 80 (0.1% v/v) such that the final test compound concentration is 1 mg/ml and the composition of the formulation is 5% DMSO:95% HPMC/Tween. Male rats (n=2, Alderley Park Han Wistar strain) are then administered, via oral gavage, the test compound formulation at a dose volume of 2 ml/kg bodyweight such that each rat receives a total test compound dose of 2 mg/kg bodyweight. Blood sampling post oral dosing is via needle stick puncture of the tail vein and is serial in design: two rats have blood samples taken at 15, 30, 60, 120, 180, 360, 720 and 1440 (cardiac puncture) minutes after dosing. All blood samples are collected into lithium heparin tubes to prevent clotting. Aliqouts of blood are then diluted 1:1 with water and then frozen at −20° C. prior to being assayed to determine test compound concentration.
Calibration standard samples are prepared by addition of known amounts of test compound to blank diluted (1:1) blood samples. Calibration standards and unknown samples are then diluted and mixed with 3 parts ice-cold acetonitrile (containing suitable internal standard) to precipitate proteinaceous material. Following centrifugation, sample and calibration standard supernatants are analysed for test compound concentration by HPLC with MS/MS (triple quad mass spectrometry) detection. Quantification of test compound concentrations in the blood samples taken from the rats is achieved by reference to a standard curve constructed from the calibration standard samples.
Blood concentration—time point data and other information such as IV and PO dose is then entered into and analysed by a commercially available non-linear regression software program (WinNonLin version 4.1, Pharsight Corporation) to determine the rat PK parameters of interest (as described above).

IC50 [1] [nM]	clearance [2] [mL/min/kg]	half-life [2] [h]	Vd [2] [L/kg]	F [2] [%]	SMILES
32	37	2.7	4.9	1	Cc1nnc(C(C)C)n1C1CCN(C(C)C[C@@H](c2cc(F)cc(F)c2)C2CCN(S(C)(=O)=O)CC2)CC1 (single isomer, unassigned) [Comparator Compound A]
6.5	18	4	4.1	28	CCc1nnc(C(C)C)n1C1CCN([C@H](C)C[C@@H](c2cc(F)cc(F)c2)C2CCN(S(C)(=O)=O)CC2)CC1 (single isomer, unassigned)
